What was measured:
[1] = compared with epinephrine; cited from earlier work
[2] = system: post-resuscitation left ventricular function and ventricular arrhythmias; test: Ventricular fibrillation cardiac arrest with precordial compression and defibrillation in pigs (Example 2); assay type: in vivo, Male domestic pigs; details: for resuscitation outcome: defibrillation attempted 4 min after drug
Description: Male domestic pigs weighing between 40 and 45 kg were fasted overnight except for free access to water. Anesthesia was initiated by intramuscular injection of ketamine (20 mg/kg) and completed by ear vein injection of sodium pentobarbital (30 mg/kg). Additional doses of sodium pentobarbital (8 mg/kg) were injected at intervals of 1 h to maintain anesthesia. A cuffed endotracheal tube was advanced into the trachea. Animals were mechanically ventilated with a volume-controlled ventilator (Model MA-1; Puritan-Bennett, Carlsbad, Calif.). End tidal PCO2 (PETCO2) was monitored with an infrared analyzer (Model 01R-7101A; Nihon Kohden Corp., Tokyo, Japan). Respiratory frequency was adjusted to maintain PETCO2 between 35 and 40 mm Hg.
For the measurement of left ventricular function, a 5-MHZ single plane with 5 MHZ continuous-wave Doppler transesophageal echocardiographic transducer with four-way flexure (Model 21363A; Hewlett-Packard Co., Medical Products Group, Andover Mass.) was advanced from the incisor teeth into the esophagus for a distance of approximately 35 cm. For the measurement of aortic pressure, a fluid-filled catheter was advanced from the left femoral artery into the thoracic aorta. For the measurement of right atrial pressure, pulmonary arterial pressures and blood temperature, a 7-F, pentalumen, thermodilation-tip catheter was advanced from the left femoral vein and flow directed into the pulmonary artery. For inducing ventricular fibrillation (VF), a 5-F pacing catheter (EP Technologies, Inc., Mountain View, Calif.) was advanced from the right cephalic vein into the right ventricle until an electrocardiographic current of injury was recorded.
Ventricular fibrillation (VF) was induced and untreated for 7 minutes. Precordial compression (PC) was then initiated. After 2 minutes of precordial compression, animals were randomized to receive either the selective α2-adrenergic agent, α-methylnorepinephrine (100 μg/kg; catalog number M133, Research Biochemicals International) or epinephrine (30 μg/kg). Defibrillation was attempted 4 min. later. […] A lower incidence of post-resuscitation ventricular arrhythmias was again observed with those animals receiving α-methylnorepinephrine.

[3] = system: post-resuscitation myocardial dysfunction, ventricular arrhythmias and survival; test: Ventricular fibrillation cardiac arrest with precordial compression and defibrillation in rats (Example 1); assay type: in vivo, Sprague-Dawley rats; details: for duration of post-resuscitation survival: VF untreated 8 min, drug after 2 min precordial compression, α-methylnorepinephrine 100 μg/kg, epinephrine 30 μg/kg, FIG. 4; for resuscitation outcome: defibrillation attempted 4 min after drug
Description: Sprague-Dawley rats (450-570 g) were fasted overnight except for free access to water. The animals were anesthetized by intraperitoneal injection of 45 mg/kg pentobarbital sodium supplemented with additional doses of 10 mg/kg at hourly intervals, except that no pentobarbital was administered for 30 minutes before induction of cardiac arrest. The trachea was orally intubated with a 14-gauge cannula (Quick-Cath, Vicra division, Travenol Laboratory) mounted on a blunt needle with a 145° angled tip. For measurement of the partial pressure of carbon dioxide in the endotracheum (PETCO2), the respiratory gas was sampled through a side manifold interposed between the tracheal cannula and the respirator. The PCO2 was measured with a side-stream infrared CO2 analyzer (model 200, Instrumentation Laboratories). For measurement of left ventricular pressure, and both dP/dt40 (the rate of left ventricular pressure increase measured at a left ventricular pressure of 40 mm Hg, an indicator of isovolemic contractility) and negative dP/dt (the rate of left ventricular pressure decline, a measure of myocardial relaxation), a Teflon catheter (UTX 022; internal diameter, 0.6 mm; outer diameter, 0.97 mm; length 8 cm; Becton Dickinson) was advanced into the left ventricle from the right carotid artery. […] Guided by pressure monitoring, the catheter was slowly withdrawn into the right atrium. Right atrial pressure was measured with reference to the midchest with a high-sensitivity transducer (P-23-9b, Spectramed). This catheter was also used to sample blood from the right atrium. Through the right external jugular vein, a 3F pediatric radial artery catheter (model C-PUM-301J, Cook) was advanced into the right atrium. A precurved guide wire supplied with the catheter was then advanced through the catheter into the right ventricle until an endocardial ECG was observed. Through the right femoral artery, a Teflon catheter (UTX 022, Becton Dickinson) was advanced into the thoracic aorta for measurement of aortic pressure with a model TNF-R transducer (Abbott Critical Care). […] Rectal temperature was measured continuously with a rectal thermistor. Conventional lead II ECGs were recorded with skin electrodes (model E220, In-vivo Metric).
Ventricular fibrillation (VF) was induced and untreated for 8 minutes. Precordial compression (PC) was then initiated. After 2 minutes of precordial compression, animals were randomized to receive either the selective α2-adrenergic agent, α-methylnorepinephrine (100 μg/kg; catalog number M133, Research Biochemicals International; abbreviated “α-methylnorepi.”), epinephrine (30 μg/kg; abbreviated “epi.”) or saline placebo. Defibrillation (DF) was attempted 4 min. later. […] Baseline (BL) or control values are shown at the left of the figures.

[4] = immediately following administration, under spontaneous circulation and during CPR; cited from earlier work

Question: With `CNC[C@H](O)c1cccc(O)c1` [phenylephrine] as the compound, how does the “effectiveness for restoring spontaneous circulation” value [1] read?
Answer: as effective as epinephrine

Question: Which “effectiveness for restoring spontaneous circulation” value [1] does the source give for `COc1ccc(OC)c(C(O)C(C)N)c1` (centres unmarked) [methoxamine] here?
Answer: as effective as epinephrine

Question: Which results are given for `CC(N)[C@H](O)c1ccc(O)c(O)c1` (stereo partly drawn) [α-methylnorepinephrine, α-(1-aminoethyl),3,4-dihydroxybenzyl alcohol]?
Answer: post-resuscitation left ventricular stroke volume ([2]; 100 μg/kg vs epinephrine 30 μg/kg, transesophageal echo-Doppler, FIG. 5): markedly improved; post-resuscitation ejection fraction ([2]; 100 μg/kg vs epinephrine 30 μg/kg, transesophageal echo-Doppler, FIG. 6): markedly improved; post-resuscitation cardiac output ([2]; 100 μg/kg vs epinephrine 30 μg/kg, transesophageal echo-Doppler, FIG. 7): markedly improved; incidence of post-resuscitation ventricular arrhythmias ([2]; VF untreated 7 min, α-methylnorepinephrine 100 μg/kg vs epinephrine 30 μg/kg): lower; resuscitation outcome [2]: successfully resuscitated; post-resuscitation myocardial dysfunction as measured by dp/dt40 ([3]; 100 μg/kg, vs epinephrine or saline placebo, FIG. 1): significantly less severe; post-resuscitation myocardial dysfunction as measured by negative dP/dt ([3]; 100 μg/kg, vs epinephrine or saline placebo, FIG. 2): significantly less severe; post-resuscitation myocardial dysfunction as measured by cardiac index (CI) ([3]; 100 μg/kg, vs epinephrine or saline placebo, FIG. 3): significantly less severe; duration of post-resuscitation survival [3]: 72 h; resuscitation outcome [3]: successfully resuscitated; incidence of post-resuscitation ventricular arrhythmias ([3]; α-methylnorepinephrine 100 μg/kg vs epinephrine 30 μg/kg or saline placebo): significantly lower

Question: Which results are given for `CNC[C@H](O)c1ccc(O)c(O)c1` [epinephrine]?
Answer: resuscitation outcome [2]: successfully resuscitated; duration of post-resuscitation survival [3]: 19 h; resuscitation outcome [3]: successfully resuscitated; decrease of end tidal CO2 (ETCO2) [4]: 50%
